In one assay the target is T1, Aurora-A (h) (Homo sapiens, UniProt O14965).
T1 construct: purchased Merck Millipore, Inc. (Abingdon, UK), Kinase Profiler service
T1 sequence (O14965 1-403): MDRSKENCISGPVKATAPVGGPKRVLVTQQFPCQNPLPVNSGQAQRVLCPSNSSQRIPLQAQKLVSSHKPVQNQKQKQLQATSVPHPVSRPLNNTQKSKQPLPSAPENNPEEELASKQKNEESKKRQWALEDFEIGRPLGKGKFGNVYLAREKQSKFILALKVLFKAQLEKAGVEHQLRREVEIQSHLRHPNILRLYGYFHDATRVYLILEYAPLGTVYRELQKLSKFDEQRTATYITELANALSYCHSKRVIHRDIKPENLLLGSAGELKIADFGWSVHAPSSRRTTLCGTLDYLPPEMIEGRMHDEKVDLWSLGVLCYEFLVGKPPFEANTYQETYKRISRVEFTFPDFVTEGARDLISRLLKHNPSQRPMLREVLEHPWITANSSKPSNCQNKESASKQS
The assay is described as follows: Kinase Profiler in vitro assay (Merck Millipore), aurora-A. It counts as biochemical. Conditions: for inhibition at 100 µM: Aurora-A, at 100 μM concentration, with standard deviation; for IC50: at aurora A (h). Here is the method:
The fragments obtained from the above-mentioned docking study were purchased from commercial websites and evaluated using the Kinase Profiler in vitro assay technique developed by Merck Millipore, Inc., (Abingdon, UK). The aurora-A kinase was maintained with 8 mM […] at pH 7.0, 0.2 mM EDTA, 200 μM LRRASLG (Kemptide, American peptide Company, Sunnyvale, CA, USA), 10 mM MgAcetate, and [γ-33P-ATP]. The kinase reaction began with the addition of the MgATP mixture. The buffer-MgATP mixture was incubated for 40 min at room temperature. After incubation, the reaction was stopped through the addition of a 3% phosphoric acid solution. Then, a 10 μL reaction was spotted onto a P30 filtermat. The spotted P30 filtermat was washed three times for 5 min in 50 mM phosphoric acid and once in methanol prior to the drying and scintillation counting step.

The target of a further assay is T2, Aurora-C (h) (Homo sapiens, UniProt Q9UQB9).
T2 construct: purchased Merck Millipore, Inc. (Abingdon, UK), Kinase Profiler service
T2 sequence (Q9UQB9 1-309): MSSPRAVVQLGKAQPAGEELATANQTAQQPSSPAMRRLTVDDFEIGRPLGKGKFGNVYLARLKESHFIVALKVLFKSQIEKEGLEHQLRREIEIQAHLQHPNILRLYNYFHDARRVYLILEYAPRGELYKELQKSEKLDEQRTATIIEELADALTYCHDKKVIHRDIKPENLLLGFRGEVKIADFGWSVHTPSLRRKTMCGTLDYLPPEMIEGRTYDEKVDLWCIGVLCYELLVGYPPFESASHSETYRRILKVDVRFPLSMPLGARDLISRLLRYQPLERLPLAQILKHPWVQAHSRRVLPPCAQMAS
The assay is described as follows: Kinase Profiler in vitro assay, aurora-C. It counts as biochemical.

The target in the next assay is T3, Aurora-B (h) (Homo sapiens, UniProt Q96GD4).
T3 construct: purchased Merck Millipore, Inc. (Abingdon, UK), Kinase Profiler service
T3 sequence (Q96GD4 whole entry): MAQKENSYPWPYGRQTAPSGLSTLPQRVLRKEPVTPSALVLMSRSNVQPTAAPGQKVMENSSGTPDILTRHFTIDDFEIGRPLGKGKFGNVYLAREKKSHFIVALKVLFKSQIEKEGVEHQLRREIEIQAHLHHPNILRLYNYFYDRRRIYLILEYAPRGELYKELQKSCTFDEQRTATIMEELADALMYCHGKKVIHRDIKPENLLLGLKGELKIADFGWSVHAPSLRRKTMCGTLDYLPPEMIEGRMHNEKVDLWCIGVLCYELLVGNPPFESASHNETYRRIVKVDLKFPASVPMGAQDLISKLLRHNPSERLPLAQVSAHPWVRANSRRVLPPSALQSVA
The assay is described as follows: Kinase Profiler in vitro assay, aurora-B. Format: biochemical.

The next assay concerns aurora-A. Conditions: cited from earlier work.

Usually inhibition stands for the relative decrease from the control value, in per cent. A higher inhibition goes with a response far below the control. The IC50 is the concentration that inhibits the measured activity by half.

Each structure is given as a SMILES string.

Take `CN[C@@H]1C[C@H]2O[C@@](C)([C@@H]1OC)n1c3ccccc3c3c4c(c5c6ccccc6n2c5c31)C(=O)NC4` [Staurosporine, reference compound]: the inhibition at 10 µM against Aurora-A (h) came to 100%.

For the compound `Cc1nn2c(nc3ccccc32)[nH]c1=O` [Fragment 5], the inhibition at 100 µM at Aurora-A (h) is 31 ± 6%.

Take `COC(=O)/C=C1\S/C(=N\NC(=O)c2snnc2C)NC1=O` [Fragment 7]: the inhibition at 100 µM at Aurora-A (h) is 35 ± 3%.

Regarding `C/C=C/C(=O)Nn1cnc2c(cnn2-c2ccccc2)c1=O` [Fragment 15], 100 µM produced 2 ± 15% inhibition at Aurora-A (h).

The compound `Cc1cc(C)cc(Nc2ncc3c(n2)C[C@@H](c2cccs2)CC3=O)c1` [Fragment 3] returned an inhibition at 100 µM against Aurora-A (h) of over 50%.

On to `COc1cnc(NCc2ncn[nH]2)nc1-c1ccnn1C` [Fragment 11], for which 100 µM produced 25 ± 2% inhibition at Aurora-A (h).

On to `Cc1nonc1-c1ccnc2nnc(N)n12` [Fragment 9], for which the inhibition at 100 µM against Aurora-A (h) was 8 ± 10%.

`O=C(Nc1onc2c1CCCC2)c1nc(-c2cnccn2)no1` [Fragment 14]: at Aurora-A (h), the inhibition at 100 µM amounted to 39 ± 3%.

At Aurora-A (h), `COC(=O)CSc1nnc(-c2n[nH]c3c2CCC3)n1N` [Fragment 4] displayed an inhibition at 100 µM of 28 ± 1%.

Take `O=C1C(Nc2ccc(Cl)cc2)=C(Cl)C(=O)c2[nH]c(C(F)(F)F)nc21` [Compound 16]: the inhibition at 10 µM against Aurora-A (h) stood at 52%; at Aurora-C (h), 8 ± 8%; against Aurora-B (h), 84 ± 1%. Further, the IC50 at Aurora-A (h) is 9.17 µM.

With `O=C1C(Nc2cccc(Cl)c2)=C(Cl)C(=O)c2[nH]c(C(F)(F)F)nc21` [Compound 17], the figures for the inhibition at 10 µM against Aurora-A (h), on Aurora-C (h) and on Aurora-B (h) were 65%, 17 ± 4% and 76 ± 1%, respectively. The compound further registered an IC50 against Aurora-A (h) of 7.47 µM.

At Aurora-A (h), `O=C1C=CC(=O)c2[nH]c(C(F)(F)F)nc21` [Fragment 12] showed an inhibition at 100 µM of 93 ± 2%.

The compound `Cc1nnsc1C(=O)Nc1onc2c1CSC2` [Fragment 13] yielded an inhibition at 100 µM on Aurora-A (h) of over 50%.

Turning to `O=C(O)c1ccc(Nc2ncc3c(n2)-c2ccc(Cl)cc2C(c2c(F)cccc2F)=NC3)cc1` [MLN8054], the IC50 in the assay on aurora-A is […].

As to `COC(=O)c1nc2[nH]c(=O)cc(C)n2n1` [Fragment 8], the inhibition at 100 µM against Aurora-A (h) is 24 ± 4%.

At Aurora-A (h), `O=c1cc(-c2ccccc2)[nH]c2nc(SCc3ccccc3)nn12` [Fragment 2] yielded an inhibition at 100 µM of 13 ± 12%.
